Laboratory results: US12291533B2, “Substituted fused pyrimidine compounds and uses thereof” (Northwestern University, priority 2017, dated 2025)

Molecular target: T1, glucocerebrosidase (Homo sapiens, UniProt P04062)
T1 sequence (P04062 40-536): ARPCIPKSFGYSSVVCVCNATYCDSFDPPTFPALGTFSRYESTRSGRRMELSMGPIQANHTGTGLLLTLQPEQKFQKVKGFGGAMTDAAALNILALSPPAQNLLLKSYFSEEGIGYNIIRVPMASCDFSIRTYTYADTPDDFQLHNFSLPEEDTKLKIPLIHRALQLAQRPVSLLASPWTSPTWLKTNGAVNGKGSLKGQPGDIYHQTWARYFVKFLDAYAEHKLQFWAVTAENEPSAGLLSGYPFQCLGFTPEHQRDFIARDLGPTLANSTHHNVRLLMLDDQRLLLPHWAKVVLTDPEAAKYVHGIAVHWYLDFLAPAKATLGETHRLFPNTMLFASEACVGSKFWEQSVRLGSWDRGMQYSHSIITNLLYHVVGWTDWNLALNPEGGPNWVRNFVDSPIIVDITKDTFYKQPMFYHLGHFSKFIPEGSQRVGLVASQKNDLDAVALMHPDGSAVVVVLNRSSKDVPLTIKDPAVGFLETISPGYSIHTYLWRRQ
Assay: Glucocerebrosidase activity assay with blue substrate (4MU-Glc)
Assay type: biochemical
Conditions: Table 1, 7.5 nM enzyme, 1.5 mM 4MU-Glc, 30 min at 37° C.; for AC50: titration 24 nM to 50 μM
Method: Example 2—Glucocerebrosidase Activity Assay with Blue Substrate
The compounds in DMSO solution 0.5 μL/well were transferred to a black 96-well plate (the final titration was 24 nM to 50 μM, 12 concentrations, 2× dilution). 33.5 μL enzyme solution (7.5 nM final concentration) was transferred to the wells. After 5 min of incubation at room temperature, the enzyme reaction was initiated by the addition of 33 μL/well blue substrate. Final concentration of the blue substrate (4MU-Glc) was 1.5 mM. The blue substrate reaction was terminated by the addition of 33 μL/well stop solution (1 M NaOH and 1 M glycine mixture, pH 10) after 30 min of incubation at 37° C. The fluorescence was then measured in the Biotek Synergy H1 multi-mode plate reader with Ex=365 nm and Em=440 nm.
Additional compounds were synthesized and tested for glucocerebrosidase modulatory activity as described in Example 1 and Example 2.

Emax [%]	AC50 [µM]	Structure (SMILES)
573	1.38	CN(C[C@H]1COc2ccccc2O1)c1nc(-c2cccnc2)nc2c1cnn2C [Compound 10]
	3.83	CN(C[C@H]1COc2ccccc2O1)c1nc(-c2cccnc2)nc2ncccc12 [Compound 11]
750	3.55	CN(CCOc1ccccc1)c1nc(-c2cccnc2)nc2ccccc12 [Compound 13]
430	5.01	CCN(CCOc1ccccc1)c1nc(-c2cccnc2)nc2ccccc12 [Compound 14]
130	3.12	CCCN(CCOc1ccccc1)c1nc(-c2cccnc2)nc2ccccc12 [Compound 15]
190	1.58	CN(CCOc1ccccc1)c1nc(-c2ccc(Cl)nc2)nc2ccccc12 [Compound 17]
150	1.78	O=C(O)CCCCCCCN(CCOc1ccccc1)c1nc(-c2cccnc2)nc2ccccc12 [Compound 19]
500	1.26	O=C(CCCCCCCN(CCOc1ccccc1)c1nc(-c2cccnc2)nc2ccccc12)ON1C(=O)CCC1=O [Compound 20]
180	15.8	CN(CCOc1ccc(CCc2ccccc2)cc1)c1nc(-c2cccnc2)nc2ccccc12 [Compound 21]
300	1.58	c1ccc(OC2CCN(c3nc(-c4cccnc4)nc4ccccc34)C2)cc1 (stereo not drawn) [Compound 22]
500	3.55	Cc1cccc(OCCN(C)c2nc(-c3cccnc3)nc3ccccc23)c1 [Compound 23]
140	3.16	c1ccc(OCCOc2nc(-c3cccnc3)nc3ccccc23)cc1 [Compound 24]
220	3.98	c1ccc(O[C@H]2CCCN(c3nc(-c4cccnc4)nc4ccccc34)C2)cc1 [Compound 25]
225	1.78	c1ccc(O[C@@H]2CCCN(c3nc(-c4cccnc4)nc4ccccc34)C2)cc1 [Compound 26]
225	3.98	Cc1cc(C)cc(OCCN(C)c2nc(-c3cccnc3)nc3ccccc23)c1 [Compound 27]
350	3.16	Cc1ccccc1OCCN(C)c1nc(-c2cccnc2)nc2ccccc12 [Compound 28]
180	39.8	CN(CCOC(C)(C)C)c1nc(-c2cccnc2)nc2ccccc12 [Compound 29]
250	5.01	CN(CCc1c[nH]c2ccccc12)c1nc(-c2cccnc2)nc2ccccc12 [Compound 30]
250	1.21	CN(CCOc1ccccc1)c1nc(-c2cncc(Cl)c2)nc2ccccc12 [Compound 32]
190	2.82	C#Cc1ccc(OCCN(C)c2nc(-c3cccnc3)nc3ccccc23)cc1 [Compound 33]
160	1.12	CN(CCOc1ccccc1)c1nc(-c2cccnc2F)nc2ccccc12 [Compound 34]

Emax [%]	AC50 [µM]	Structure (SMILES)
180	0.51	CN(CCOc1ccccc1)c1nc(-c2cncc(F)c2)nc2ccccc12 [Compound 35]
220	1.58	CN(CCOc1ccccc1)c1nc(-c2ccc(F)nc2)nc2ccccc12 [Compound 36]
250	1.65	CN(CCOc1ccccc1)c1nc(-c2cncc(C(F)(F)F)c2)nc2ccccc12 [Compound 37]
700	2.82	CN(CCOc1ccccc1)c1nc(-c2cccnc2)nc2c(F)cccc12 [Compound 38]
450	2.82	CN(CCOc1ccccc1)c1nc(-c2cccnc2)nc2cc(F)ccc12 [Compound 39]
450	1.58	CN(CCOc1ccccc1)c1nc(-c2cccnc2)nc2ccc(F)cc12 [Compound 40]
180	13.5	CN(CCOc1ccccc1)c1nc(-c2cccnc2)nc2cccc(F)c12 [Compound 41]
250	6.54	CN(CCN(C)c1nc(-c2cccnc2)nc2ccccc12)c1ccccc1 [Compound 42]
400	1.81	CN(CCOc1ccccc1)c1nc(-c2cccnc2)nc2c(C(F)(F)F)cccc12 [Compound 43]
180	4.12	CN(CCOc1ccccc1)c1nc(-c2cccnc2)nc2cc(C(F)(F)F)ccc12 [Compound 44]
120	5	CN(CCOc1ccccc1)c1nc(-c2cccnc2)nc2ccc(C(F)(F)F)cc12 [Compound 45]
175	2.21	Cc1noc(C)c1-c1nc(N(C)CCOc2ccccc2)c2ccccc2n1 [Compound 47]
120	2.42	CN(CCOc1ccccc1)c1nc(-c2coc3ccccc23)nc2ccccc12 [Compound 49]
200	8.17	CN(CCOc1ccccc1)c1nc(-c2ccc(O)nc2)nc2ccccc12 [Compound 51]
300	4.1	CN(CCOc1ccc(CN)cc1)c1nc(-c2cccnc2)nc2ccccc12 [Compound 53]
170	3.1	CN(CCOc1ccccc1)c1nc(-c2ccc(N)nc2)nc2ccccc12 [Compound 54]
458	39.8	Cc1sc2nc(-c3cccnc3)nc(N(C)CCOc3ccccc3)c2c1C [Compound 55]
295	3.3	CN(CCOc1ccccc1)c1nc(-c2cccnc2)nc2c1CCC2 [Compound 56]
130	1.41	CN(CCOc1ccccc1)c1nc(-c2cccnc2)nc2c1CCCC2 [Compound 58]
333	5.01	CN(CCOc1ccccc1)c1nc(-c2cccnc2)nc2ccsc12 [Compound 59]
624	3.16	CN(CCOc1ccccc1)c1nc(-c2cccnc2)nc2sccc12 [Compound 60]

Emax [%]	AC50 [µM]	Structure (SMILES)
127	2.51	COC(=O)Cc1ccc(CNc2nc(-c3cccnc3)nc3ccccc23)cc1 [Compound 61]
	7.08	CN(CCOc1ccccc1)c1nc(-c2cccnc2)nc2ncccc12 [Compound 62]
461	3.98	CN(CCOc1ccccc1)c1nc(-c2cccnc2)nc2[nH]ccc12 [Compound 63]
222	2.51	Cc1csc2c(N(C)CCOc3ccccc3)nc(-c3cccnc3)nc12 [Compound 64]
144	1	CN(CCOc1ccccc1)c1cc(-c2ccccc2)nc(-c2cccnc2)n1 [Compound 65]
141	7.08	CN(CCOc1ccccc1)c1nc(Nc2ccccc2)nc2ccccc12 [Compound 66]
787	10	CN(CCOc1ccccc1)c1nc(-c2cccnc2)nc2ccoc12 [Compound 67]
327	12.6	CN(CCOc1ccccc1)c1nc(-c2cccnc2)nc2c1SCC2 [Compound 68]
	7.1	CN(CCOc1ccccc1)c1nc(-c2cncc(F)c2)nc2ncccc12 [Compound 69]
191	8.91	Cc1nn(Cc2ccccc2)c(C)c1Nc1nc(-c2cccnc2)nc2ccccc12 [Compound 70]
346	15.8	CN(CCOc1ccccc1)c1cc(N2CCOCC2)nc(-c2cccnc2)n1 [Compound 71]
927	6.31	CN(CCOc1ccccc1)c1nc(-c2cccnc2)nc2c1ccn2C [Compound 72]
330	5.62	CN(CCOc1ccccc1)c1nc(-c2cccnc2)nc2c1COC2 [Compound 73]
194	10	Cc1nn(Cc2ccccc2)c(C)c1N(C)c1nc(-c2cccnc2)nc2ccccc12 [Compound 74]
115	2	CN(CC1CCc2ccccc2C1)c1nc(-c2cccnc2)nc2ccccc12 (stereo not drawn) [Compound 75]
255	4.47	COC(=O)c1ccc(OCCN(C)c2nc(-c3cccnc3)nc3ccccc23)cc1 [Compound 76]
432	5.01	COC(=O)c1cccc(OCCN(C)c2nc(-c3cccnc3)nc3ccccc23)c1 [Compound 77]
425	1.56	CN(CCOc1ccccc1)c1nc(-c2cccnc2)nc2c1cnn2C [Compound 78]
252	12.6	CN(CCOc1ccc(C(=O)O)cc1)c1nc(-c2cccnc2)nc2ccccc12 [Compound 79]

Structure (SMILES)	Emax [%]	AC50 [µM]
CN(C[C@H]1COc2ccccc2O1)c1nc(-c2cccnc2)nc2ccccc12 [Compound 9, (S)—N-((2,3-dihydrobenzo[b][1,4]dioxin-2-yl)methyl)-N-methyl-2-(pyridin-3-yl)quinazolin-4-amine]	645	1.49
CN(C[C@@H]1COc2ccccc2O1)c1nc(-c2cccnc2)nc2ccccc12 [Compound 12]	220	2.67
